In experiment [1] the target is T1, system Xc^− (Homo sapiens, UniProt Q9UPY5).
T1 sequence (Q9UPY5 1-501): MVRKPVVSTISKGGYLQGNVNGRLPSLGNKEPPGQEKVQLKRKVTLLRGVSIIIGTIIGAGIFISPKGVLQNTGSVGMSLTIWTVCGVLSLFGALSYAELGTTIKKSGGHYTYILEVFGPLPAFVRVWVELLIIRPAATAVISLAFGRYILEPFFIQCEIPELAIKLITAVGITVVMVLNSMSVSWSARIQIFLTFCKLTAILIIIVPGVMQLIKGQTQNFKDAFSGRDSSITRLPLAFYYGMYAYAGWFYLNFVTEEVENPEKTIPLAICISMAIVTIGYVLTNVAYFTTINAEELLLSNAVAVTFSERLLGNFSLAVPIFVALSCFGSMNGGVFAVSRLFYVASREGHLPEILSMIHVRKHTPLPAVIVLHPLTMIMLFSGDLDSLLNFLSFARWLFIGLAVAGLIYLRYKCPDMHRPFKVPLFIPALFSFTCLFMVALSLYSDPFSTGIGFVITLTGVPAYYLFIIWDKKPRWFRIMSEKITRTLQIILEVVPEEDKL
T1 sequence (P08195 1-529 partner): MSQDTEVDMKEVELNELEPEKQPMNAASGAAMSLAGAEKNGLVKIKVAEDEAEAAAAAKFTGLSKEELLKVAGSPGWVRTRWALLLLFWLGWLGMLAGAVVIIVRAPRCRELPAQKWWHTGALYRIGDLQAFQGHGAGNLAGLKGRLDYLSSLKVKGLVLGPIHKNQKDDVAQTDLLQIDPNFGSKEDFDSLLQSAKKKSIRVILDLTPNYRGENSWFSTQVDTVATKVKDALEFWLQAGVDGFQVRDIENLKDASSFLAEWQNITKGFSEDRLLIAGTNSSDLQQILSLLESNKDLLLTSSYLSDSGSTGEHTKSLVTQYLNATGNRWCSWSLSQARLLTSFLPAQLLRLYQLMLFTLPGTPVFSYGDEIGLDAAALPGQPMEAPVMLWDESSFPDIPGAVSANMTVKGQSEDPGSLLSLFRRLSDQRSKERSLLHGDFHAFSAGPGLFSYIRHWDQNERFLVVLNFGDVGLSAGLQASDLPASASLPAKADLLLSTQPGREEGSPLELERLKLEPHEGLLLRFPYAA
As to the kind of experiment: Cystine-induced glutamate release assay. Type of experiment: cell-based. The arrangement: endogenous in cells; host or cells: H4 cells. As to conditions: H4 cells, sodium-free HEPES buffer, 50 μM L-Cystine, 2 hours, Amplex Red glutamate readout; read-out: pIC50 Cystine-induced glutamate release assay (converted). The method in brief: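 IC50 (reported as pIC50) normalized to DMSO 1% and Erastin 50 μM controls, from Amplex Red fluorescence of glutamate exported into supernatant. H4 cells were washed into sodium-free buffer to exclude EAAT transport, then given compound with 50 μM L-cystine for 2 h in the incubator.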

The target in experiment [2] is T1, system Xc^−. As to the kind of experiment: [^14C]L-Cystine uptake assay. Type of experiment: cell-based. The arrangement: endogenous in cells; host or cells: H4 cells. As to conditions: H4 cells, sodium-free HEPES buffer, 0.5 μM L-[14C]Cystine and 4.5 μM L-Cystine, 1 hour at 37° C.; read-out: pIC50 [^14C] L-Cystine uptake assay (converted). The method in brief: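 Compound effect is given as pIC50, taken between controls of 1% DMSO and 50 μM Erastin. Human H4 cells were pretreated 15 min with compound in sodium-free buffer, then took up 0.5 μM [14C]cystine with 4.5 μM cold cystine for 1 hour at 37° C, read by scintillation proximity counting.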

Turning to `Cc1cc2c(cn1)-c1cccc(F)c1CC(=O)N2CC(=O)Nc1ccc(C(F)(F)F)cc1` [#35, 2-(8-fluoro-3-methyl-6-oxo-7H-pyrido[4,3-d][3]benzazepin-5-yl)-N-[4-(trifluoro-methyl)phenyl] acetamide], the IC50 is 39.8 to 100 nM on system Xc^− [1] and 15.8 to 39.8 nM on system Xc^− [2].
As to `Cc1cc2c(c(C#N)n1)-c1ccccc1CC(=O)N2CC(=O)Nc1ccc(C(F)(F)F)cc1` [#61, 2-(1-cyano-3-methyl-6-oxo-7H-pyrido[4,3-d][3]benzazepin-5-yl)-N-[4-(trifluoromethyl)phenyl]acetamide], the IC50 on system Xc^− [1] is 15.8 to 39.8 nM; at system Xc^− [2] it was under 15.8 nM.
Regarding `Cc1cc2c(c(F)n1)-c1cc(F)ccc1C(C)C(=O)N2CC(=O)Nc1ccc(Cl)c(F)c1` (single isomer, unassigned) [#405, N-(4-chloro-3-fluoro-phenyl)-2-[1,10-difluoro-3,7-dimethyl-6-oxo-7H-pyrido[3,4-a][3]benzazepin-5-yl]acetamide], the IC50 at system Xc^− [1] was 15.8 to 39.8 nM; on system Xc^− [2], under 15.8 nM.
The corresponding values for `Cc1cc2c(c(=O)[nH]1)-c1ccccc1[C@@H](C)C(=O)N2CC(=O)Nc1ccc(C(F)(F)F)cc1` (single isomer, unassigned) [#205, Entnaiomer (7R) or (7S) of 2-[3,7-dimethyl-1,6-dioxo-2,7-dihydropyrido[4,3-d][3]benzazepin-5-yl]-N-[4-(trifluoromethyl)phenyl]acetamide] are 15.8 to 39.8 nM and under 15.8 nM.
The like results for `Cc1cc2c(c(F)n1)-c1ccccc1C(O)C(=O)N2CC(=O)Nc1ccc(C(F)(F)F)cc1` (stereo not shown) [#95, 2-(1-fluoro-7-hydroxy-3-methyl-6-oxo-7H-pyrido[4,3-d][3]benzazepin-5-yl)-N-[4-(trifluoromethyl)phenyl]acetamide] were, in that order, 15.8 to 39.8 nM and 39.8 to 100 nM.
With `COc1nc(C)cc2c1-c1cncnc1CC(=O)N2CC(=O)Nc1ccc(C(F)(F)F)cc1` [#98, 2-(15-methoxy-13-methyl-9-oxo-4,6,10,14-tetrazatricyclo[9.4.0.0^2,7]pentadeca-1(15),2(7),3,5,11,13-hexaen-10-yl)-N-[4-(trifluoromethyl)phenyl]acetamide], the IC50 at system Xc^− [1] was 39.8 to 100 nM; at system Xc^− [2], 15.8 to 39.8 nM.
`Cc1cc2c(cn1)-c1ccc(C)nc1CC(=O)N2CC(=O)Nc1ccc(C(F)(F)F)cc1` [#71, 2-(5,13-dimethyl-9-oxo-4,8,12-triazatricyclo[9.4.0.0^2,7]pentadeca-1(11),2(7),3,5,12,14-hexaen-8-yl)-N-[4-(trifluoromethyl)phenyl]acetamide]: the IC50 at system Xc^− [1] and on system Xc^− [2] was 100 to 501 nM in each case.
On to `Cc1cc2c(cn1)-c1cc(Cl)ccc1CC(=O)N2CC(=O)Nc1ccc(C(F)(F)F)cc1` [#30, 2-(10-chloro-3-methyl-6-oxo-7H-pyrido[4,3-d][3]benzazepin-5-yl)-N-[4-(trifluoro-methyl)phenyl] acetamide], for which the figures for the IC50 at system Xc^− [1] and at system Xc^− [2] were 100 to 501 nM and under 15.8 nM, respectively.
The corresponding values for `Cc1cc2c(c(F)n1)-c1cccnc1[C@@H](C)C(=O)N2CC(=O)Nc1ccc(C(F)F)cc1` [#151] are under 15.8 nM and under 15.8 nM.
As to `Cc1cc2c(c(F)n1)-c1ncccc1CC(=O)N2CC(=O)Nc1ccc(Cl)c(F)c1` [#41, N-(4-chloro-3-fluoro-phenyl)-2-(15-fluoro-13-methyl-9-oxo-3,10,14-triazatricyclo [9.4.0.0^2,7]pentadeca-1(11),2(7),3,5,12,14-hexaen-10-yl)acetamide], the IC50 at system Xc^− [1] and on system Xc^− [2] was 100 to 501 nM throughout.
On to `Cc1cc2c(c(F)n1)-c1cccnc1[C@@H](C)C(=O)N2CC(=O)Nc1ccc(Cl)c(Cl)c1` [#150, N-(3,4-dichlorophenyl)-2-[(10R)-3-fluoro-5,10-dimethyl-9-oxo-4,8,12-triazatricyclo[9.4.0.0^2,7]pentadeca-1(11),2(7),3,5,12,14-hexaen-8-yl]acetamide], for which the figures for the IC50 on system Xc^− [1] and at system Xc^− [2] were 39.8 to 100 nM and 15.8 to 39.8 nM, respectively.
As to `Cc1cc2c(c(F)n1)-c1cccnc1C(F)C(=O)N2CC(=O)Nc1ccc(C(F)(F)F)cc1` (stereo not shown) [#101, 2-(3,10-difluoro-5-methyl-9-oxo-4,8,12-triazatricyclo[9.4.0.0^2,7]pentadeca-1(11),2(7),3,5,12,14-hexaen-8-yl)-N-[4-(trifluoromethyl)phenyl]acetamide], the values for the IC50 on system Xc^− [1] and at system Xc^− [2] were 15.8 to 39.8 nM and under 15.8 nM, respectively.
With `CC1C(=O)N(CC(=O)Nc2ccc(C(F)F)cc2)c2cc(N3CC[C@H]3CO)nc(F)c2-c2cccnc21` (stereo partly drawn) [#272, N-[4-(difluoromethyl)phenyl]-2-[3-fluoro-5-[(2S)-2-(hydroxymethyl)azetidin-1-yl]-10-methyl-9-oxo-4,8,12-triazatricyclo[9.4.0.0^2,7]pentadeca-1(15),2,4,6,11,13-hexaen-8-yl]acetamide], the IC50 on system Xc^− [1] and at system Xc^− [2] was 15.8 to 39.8 nM each time.
As for `Cc1cc2c(c(F)n1)-c1cccnc1[C@H](C)C(=O)N2CC(=O)Nc1ccc(C(F)(F)F)cc1` (single isomer, unassigned) [#191], the IC50 was 100 to 501 nM on system Xc^− [1] and 39.8 to 100 nM on system Xc^− [2].
For the compound `Cc1cc2c(c(C)n1)-c1ccc(F)cc1CC(=O)N2CC(=O)Nc1ccc(C(F)(F)F)cc1` [#65, 2-(9-fluoro-1,3-dimeth-yl-6-oxo-7H-pyrido[4,3-d][3]benzazepin-5-yl)-N-[4-(trifluorometh-yl)phenyl]acetamide], the IC50 is 15.8 to 39.8 nM on system Xc^− [1] and under 15.8 nM at system Xc^− [2].
Consider `CC1C(=O)N(CC(=O)Nc2ccc(C(F)F)cc2)c2cc(C3CC3)c(=O)n(C)c2-c2ccccc21` (stereo not shown) [#322, 2-(3-cyclopropyl-1,7-dimethyl-2,6-dioxo-7H-pyrido[3,2-d][3]benzazepin-5-yl)-N-[4-(difluoromethyl)phenyl]acetamide], for which the IC50 at system Xc^− [1] was 15.8 to 39.8 nM; at system Xc^− [2], 39.8 to 100 nM.
For `COc1cc2c(c(C)n1)-c1cccnc1C(C)C(=O)N2CC(=O)Nc1ccc(C(F)F)cc1` (single isomer, unassigned) [#299, N-[4-(difluoromethyl)phenyl]-2-[5-methoxy-3,10-dimethyl-9-oxo-4,8,12-triazatricyclo[9.4.0.0^2,7]pentadeca-1(15),2(7),3,5,11,13-hexaen-8-yl]acetamide], the IC50 on system Xc^− [1] and on system Xc^− [2] was under 15.8 nM each time.
As for `CC1C(=O)N(CC(=O)Nc2ccc(Cl)c(F)c2)c2ccn(C)c(=O)c2-c2ccccc21` (stereo not shown) [#351, N-(4-chloro-3-fluoro-phenyl)-2-(2,7-dimethyl-1,6-dioxo-7H-pyrido[4,3-d][3]benzazepin-5-yl)acetamide], the IC50 on system Xc^− [1] and on system Xc^− [2] was 39.8 to 100 nM throughout.
`CC1C(=O)N(CC(=O)Nc2ccc(C(F)F)cc2)c2cc(OC(F)F)nc(Cl)c2-c2cccnc21` (single isomer, unassigned) [#416, 2-[3-chloro-5-(difluoromethoxy)-10-methyl-9-oxo-4,8,12-triazatricyclo[9.4.0.0^2,7]pentadeca-1(15),2,4,6,11,13-hexaen-8-yl]-N-[4-(difluoromethyl)phenyl]acetamide]: the figures for the IC50 on system Xc^− [1] and on system Xc^− [2] were 15.8 to 39.8 nM and under 15.8 nM, respectively.
Consider `Cc1cc2c(c(F)n1)-c1cccnc1CC(=O)N2CC(=O)Nc1ccc(C(F)(F)F)cc1` [#40, 2-(3-fluoro-5-methyl-9-oxo-4,8,12-triaza-tricyclo[9.4.0.0^2,7]pentadeca-1(11),2(7), 3,5,12,14-hexaen-8-yl)-N-[4-(trifluoro-methyl)phenyl]acet-amide], for which the IC50 at system Xc^− [1] is 15.8 to 39.8 nM; on system Xc^− [2], under 15.8 nM.

Values taken from patent US20260217708A1, “FUSED BENZAZEPINE DERIVATIVES FOR USE IN THE TREATMENT OF CANCER AND EPILEPSY” (UCB BIOPHARMA SRL, priority 2023, published 2026).
